# Key:
# S1P5 = target: T1, S1P5 (Homo sapiens, UniProt Q9H228); assay: S1P5 antagonist test, Tango S1P5-bla U-2 OS cells; type: cell-based; conditions: S1P5 TANGO U-2 OS cell line
# T1 construct: Tango fusion partner (protease site + GAL4-VP16 transcription factor); expressed in transfected cells; host or cells: Tango S1P5-bla U-2 OS cells
# Method: Since AD2900 is a sphingolipid analogue with properties that resemble those of S1P, we intended to examine its ability to interact with the S1P receptors. To delineate whether AD2900 can function as an agonistic or antagonistic compound to any of the S1P receptors, we used a high-throughput screening cell-based assay, employing cell lines stably transfected with human S1P receptors 1, 2, 3, 4, or 5 [37]. In this experiment, a compound with an IC50 or EC50 value ≤10 μM for a certain S1P receptor is considered active as an antagonist or an agonist, respectively. The results illustrate that AD2900 acts as an antagonist to all S1P receptors (Table 1, Supplementary Figure 3). […] No agonist activation was evident.
# The S1P1 agonist test and S1P2, S1P3, S1P4, and S1P5 agonist and antagonist tests were conducted as previously described using S1P1 CRE-bla CHO cells, S1P2 CRE-bla CHO cells, S1P3 NFAT-bla CHO cells, Tango™ S1P4 (EDG6)-bla U-2 OS cells, and Tango™ S1P5 ([…])-bla U-2 OS cells. The S1P1 antagonist assay was carried out according to the manufacturer’s instructions using a Tango™ S1P1 (EDG1)-bla U-2 OS Cell-Based Assay (Invitrogen, NY, USA).
# TNF-α = TNF-α secretion from activated PBMCs, ELISA; type: cell-based, human; conditions: 1-day pretreatment, 5th day of MLR
# Method: To better characterize the effect of AD2900 on activated PBMCs, the influence of AD2900 on apoptosis and cytokine secretion was tested. After 5 days of MLR, the cells were collected for apoptosis evaluation, while the supernatant was collected for ELISA test. Apoptosis was induced on the activated PBMCs only at higher concentrations of AD2900, above 10 μM (Figure 1C). Therefore, only a small part of the effect of AD2900 on the suppression of lymphocytic proliferation might be attributed to apoptosis. AD2900-induced inhibition of proliferation was accompanied by a reduced level of IFN-γ concentrations in the supernatant (Figure 1D).
# Human PBLs were collected from human whole blood collected from healthy donors. Subsequently, the cells were centrifuged on a Ficoll-Paque gradient (Fresenius Kabi Norge AS, Oslo, Norway) and were isolated from the interphase layer. For the human MLR experiment, PBMCs from one healthy donor were pretreated for 1 day with AD2900, AD2730, AD2750, YZ297, YZ158, FTY720, or SEW2871. […] For the thymidine incorporation assay, after 4 days of co-culture, cells were pulsed with ^3H-thymidine at 1 μCi (0.037MBq) per well (PerkinElmer, MA, USA) for 16 additional hours and then harvested onto glass-fiber filters. ^3H-thymidine incorporation was measured using Top Count. […]
# Molt4 = assay: XTT viability assay, Molt4; type: cell-based, human; conditions: 1-day treatment, compared with Jurkat (>10 μM)
# Method: Figure 1 AD2900 inhibits human lymphocyte proliferation in allogeneic activation (A, B) The levels of proliferative response of human peripheral blood lymphocytes (PBMCs) after 1-day pretreatment with different concentrations of AD2900, AD2750, YZ138, YZ158, and YZ297 (A) or AD2900, FTY720, and SEW2871 (B) were tested by human allogeneic mixed lymphocyte reaction (MLR) assay, followed by a [3H] thymidine incorporation analysis. (C) Apoptosis of AD2900-treated activated PBMCs was tested by AnnexinV-propidium iodide (PI) FACS analysis following 1-day AD2900 pretreatment and MLR. All the samples were compared to the untreated PBMC control. (D) IFN-γ secretion from activated PBMCs was tested by ELISA following a 1-day AD2900 pretreatment in MLR. On the 5th day of hMLR, supernatants were collected and assayed for the level of IFN-γ. (E) Jurkat cell viability after a 1-day treatment with different concentrations of AD2900, FTY720, and SEW2871 was tested by XTT viability assay. (F) H9, CEM/C1, and Molt4 cell viability after a 1-day treatment with different concentrations of AD2900 was tested by XTT viability assay. Graphs summarize the results of at least three independent experiments. Results of Student’s t-test: *(P < 0.05, two-tailed test), ** (P < 0.01, two-tailed test), *** (P < 0.001, two-tailed test), **** (P < 0.0001, two-tailed test). […]
# T1 sequence (Q9H228 whole entry, the tested form may be a part): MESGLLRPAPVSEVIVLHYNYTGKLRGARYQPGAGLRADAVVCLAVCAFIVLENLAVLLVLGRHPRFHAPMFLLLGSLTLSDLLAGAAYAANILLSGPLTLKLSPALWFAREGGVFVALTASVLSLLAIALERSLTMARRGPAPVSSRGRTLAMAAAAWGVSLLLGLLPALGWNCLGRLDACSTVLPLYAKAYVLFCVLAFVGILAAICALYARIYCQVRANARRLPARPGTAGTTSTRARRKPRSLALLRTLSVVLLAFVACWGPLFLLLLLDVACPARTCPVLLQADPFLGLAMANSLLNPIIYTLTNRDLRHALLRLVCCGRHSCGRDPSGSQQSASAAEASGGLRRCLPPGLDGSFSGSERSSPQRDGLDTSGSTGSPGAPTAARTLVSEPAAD
structure (smiles),measurement,setting,value
CCCCCCCCCCCCCCCCNC(CO)(CO)CO [AD2900],IC50,S1P5,405 nM
same,TNF-α concentration in the culture media,TNF-α,not influenced
same,"cell viability, Molt4",Molt4,reduced cell viability could be detected even at lower concentrations

# Source: PMC5581131, “The novel sphingosine-1-phosphate receptors antagonist AD2900 affects lymphocyte activation and inhibits T-cell entry into the lymph nodes” (Oncotarget, 2017)
